From patent publication US7812008B2, “9-substituted tetracyclines” (Wyeth LLC, priority 2005, dated 2010)
In brackets after ≈: the same amount, converted by molar mass. Read-outs that look alike come from different tables or passages of the source.

How the values were obtained:
[1] = test system: Staphylococcal aureus Smith M P; experiment: MIC reported in Table 2 beside the in vivo ED50; format: cell-based; conditions: Staphylococcus aureus, infecting strain S. aureus Smith MP
Procedure: Antimicrobial susceptibility testing. The in vitro activities of representative examples of antibiotics of the invention are determined by the broth microdilution method as recommended by the National Committee for Clinical Laboratory Standards (NCCLS) (1). Mueller-Hinton II broth (MHBII)(BBL Cockeysville, Md.) is the medium employed in the testing procedures. Microtiter plates containing serial dilutions of each antimicrobial agent are inoculated with each organism to yield the appropriate density (10^5 CFU/ml) in a 100 μl final volume. The plates are incubated for 18-22 hours at 35° C. in ambient air. […] NCCLS. 2000. Methods for Dilution Antimicrobial Susceptibility Tests for Bacteria That Grow Aerobically; Approved Standards: M7-A5, vol. 20. National Committe for Clinical Laboratory Standards, Wayne, Pa. In Vivo Antibacterial Evaluation: The therapeutic effects of representative examples of the invention are determined against acute lethal infection with Staphylococcal aureus Smith M P, Female mice, strain CD-1 (Charles River Laboratoties), ca. 20 grams, are challenged by an intraperitoneal injection of sufficient bacteria (suspended in broth or hog mucin) to kill non-treated controls within 24-28 hours. Antibacterial agents, contained in 0.5 ml of 0.2% aqueous agar, are administered subcutaneously or orally 30 minutes after injection. When an oral dosing schedule is used, animal are deprived of food for 5 hours before and 2 hours after injection. Five mice are treated at each dose level. The 7 day survival ratios from 3 separate tests are pooled for calculation of median effective dose (ED50).

[2] = test system: E. coli GC4559 (parent GC4560); experiment: MIC broth microdilution, E. coli GC4559 (parent GC4560); format: cell-based; conditions: MHBII, 18-22 hours at 35° C.
Procedure: (§1) Methods for in Vitro Antibacterial Evaluation
(§2) The minimum inhibitory concentration (MIC)
(§3) Antimicrobial susceptibility testing. The in vitro activities of representative examples of antibiotics of the invention are determined by the broth microdilution method as recommended by the National Committee for Clinical Laboratory Standards (NCCLS) (1). Mueller-Hinton II broth (MHBII)(BBL Cockeysville, Md.) is the medium employed in the testing procedures. Microtiter plates containing serial dilutions of each antimicrobial agent are inoculated with each organism to yield the appropriate density (10^5 CFU/ml) in a 100 μl final volume. The plates are incubated for 18-22 hours at 35° C. in ambient air. […] NCCLS. 2000. Methods for Dilution Antimicrobial Susceptibility Tests for Bacteria That Grow Aerobically; Approved Standards: M7-A5, vol. 20. National Committe for Clinical Laboratory Standards, Wayne, Pa.

[3] = test system: M. catarrhalis* GC6907 (Clinical); experiment: MIC broth microdilution, M. catarrhalis GC6907 (Clinical); format: cell-based; conditions: 18-22 hours at 35° C.
Procedure: as §1, §2, §3

[4] = test system: E. faecalis GC4555 (ATCC Control); experiment: MIC broth microdilution, E. faecalis GC4555 (ATCC Control); format: cell-based; conditions: MHBII, 18-22 hours at 35° C.
Procedure: as §1, §2, §3

[5] = test system: S. aureus GC1131 (Clinical); experiment: MIC broth microdilution, S. aureus GC1131 (Clinical); format: cell-based; conditions: MHBII, 18-22 hours at 35° C.
Procedure: as §1, §2, §3

E. coli GC2270 (tet(M)) = experiment: MIC broth microdilution, E. coli GC2270 (tet(M)); format: cell-based; conditions: MHBII, 18-22 hours at 35° C.
Procedure: as §1, §2, §3

E. coli GC1073 (tet(B)) = experiment: MIC broth microdilution, E. coli GC1073 (tet(B)); format: cell-based; conditions: MHBII, 18-22 hours at 35° C.
Procedure: as §1, §2, §3

[6] = test system: H. influenzae<> GC6896 (ATCC Control); experiment: MIC broth microdilution, H. influenzae GC6896 (ATCC Control); format: cell-based; conditions: 18-22 hours at 35° C.
Procedure: as §1, §2, §3

[7] = test system: S. aureus GC1079 (tet(K)); experiment: MIC broth microdilution, S. aureus GC1079 (tet(K)); format: cell-based; conditions: MHBII, 18-22 hours at 35° C.
Procedure: as §1, §2, §3

[8] = test system: S. aureus GC6466 (tet(M)); experiment: MIC broth microdilution, S. aureus GC6466 (tet(M)); format: cell-based; conditions: MHBII, 18-22 hours at 35° C.
Procedure: as §1, §2, §3

[9] = test system: S. aureus GC2216 (ATCC Control); experiment: MIC broth microdilution, S. aureus GC2216 (ATCC Control); format: cell-based; conditions: MHBII, 18-22 hours at 35° C.
Procedure: as §1, §2, §3

[10] = test system: E. coli GC4560 (IMP mutant); experiment: MIC broth microdilution, E. coli GC4560 (IMP mutant); format: cell-based; conditions: MHBII, 18-22 hours at 35° C.
Procedure: as §1, §2, §3

[11] = test system: E. coli GC2203 (ATCC Control); experiment: MIC broth microdilution, E. coli GC2203 (ATCC Control); format: cell-based; conditions: MHBII, 18-22 hours at 35° C.
Procedure: as §1, §2, §3

[12] = test system: S. pneumoniae* GC4465 (Clinical); experiment: MIC broth microdilution, S. pneumoniae GC4465 (Clinical); format: cell-based; conditions: 18-22 hours at 35° C.
Procedure: as §1, §2, §3

[13] = test system: S. pyogenes* GC4563 (Clinical); experiment: MIC broth microdilution, S. pyogenes GC4563 (Clinical); format: cell-based; conditions: 18-22 hours at 35° C.
Procedure: as §1, §2, §3

[14] = test system: S. pneumoniae* GC1894 (Clinical); experiment: MIC broth microdilution, S. pneumoniae GC1894 (Clinical); format: cell-based; conditions: 18-22 hours at 35° C.
Procedure: as §1, §2, §3

[15] = test system: S. aureus GC6467 (tet(M) + (K)); experiment: MIC broth microdilution, S. aureus GC6467 (tet(M) + (K)); format: cell-based; conditions: MHBII, 18-22 hours at 35° C.
Procedure: as §1, §2, §3

[16] = test system: C. albicans GC3066 ATCC (Control); experiment: MIC broth microdilution, C. albicans GC3066 ATCC (Control); format: cell-based; conditions: 18-22 hours at 35° C.
Procedure: as §1, §2, §3

[17] = test system: Staphylococcal aureus Smith M P; experiment: In vivo antibacterial evaluation, acute lethal infection in mice; conditions: Mus musculus, iv, 168 h; single intraveneous dose; female CD-1 mice; 7 day survival ratios, 3 tests pooled; read-out: SIV* ED50
[18] = test system: E. faecalis GC2267 (tet(L) + (M) + (S)); experiment: MIC broth microdilution, E. faecalis GC2267 (tet(L) + (M) + (S)); format: cell-based; conditions: MHBII, 18-22 hours at 35° C.
Procedure: as §1, §2, §3

[19] = test system: S. aureus GC4536 (Smith MP -In Vivo); experiment: MIC broth microdilution, S. aureus GC4536 (Smith MP -In Vivo); format: cell-based; conditions: MHBII, 18-22 hours at 35° C.
Procedure: as §1, §2, §3

[20] = test system: Staphylococcal aureus Smith M P; experiment: In vivo antibacterial evaluation, acute lethal infection in mice; conditions: Mus musculus; single oral dose 30 minutes after intraperitoneal challenge; female CD-1 mice; 7 day survival ratios, 3 tests pooled; read-out: SOD* ED50
Procedure: In Vivo Antibacterial Evaluation: The therapeutic effects of representative examples of the invention are determined against acute lethal infection with Staphylococcal aureus Smith M P, Female mice, strain CD-1 (Charles River Laboratoties), ca. 20 grams, are challenged by an intraperitoneal injection of sufficient bacteria (suspended in broth or hog mucin) to kill non-treated controls within 24-28 hours. Antibacterial agents, contained in 0.5 ml of 0.2% aqueous agar, are administered subcutaneously or orally 30 minutes after injection. When an oral dosing schedule is used, animal are deprived of food for 5 hours before and 2 hours after injection. Five mice are treated at each dose level. The 7 day survival ratios from 3 separate tests are pooled for calculation of median effective dose (ED50).

[21] = test system: E. faecalis GC2242 (Van-resistant); experiment: MIC broth microdilution, E. faecalis GC2242 (Van-resistant); format: cell-based; conditions: MHBII, 18-22 hours at 35° C.
Procedure: as §1, §2, §3

Structure (SMILES)	MIC [1]	minimum inhibitory concentration (MIC) [2]	minimum inhibitory concentration (MIC) [3]	minimum inhibitory concentration (MIC) [4]	minimum inhibitory concentration (MIC) [5]	minimum inhibitory concentration (MIC) (E. coli GC2270 (tet(M)))	minimum inhibitory concentration (MIC) (E. coli GC1073 (tet(B)))	minimum inhibitory concentration (MIC) [6]	minimum inhibitory concentration (MIC) [7]	minimum inhibitory concentration (MIC) [8]	minimum inhibitory concentration (MIC) [9]	minimum inhibitory concentration (MIC) [10]	minimum inhibitory concentration (MIC) [11]	minimum inhibitory concentration (MIC) [12]	minimum inhibitory concentration (MIC) [13]	minimum inhibitory concentration (MIC) [14]	minimum inhibitory concentration (MIC) [15]	minimum inhibitory concentration (MIC) [16]	ED50 [17]	minimum inhibitory concentration (MIC) [18]	also measured
CN(C)c1cc(NC(=O)CN(O)C(C)(C)C)c(O)c2c1C[C@H]1C[C@H]3[C@H](N(C)C)C(O)=C(C(N)=O)C(=O)[C@@]3(O)C(O)=C1C2=O [Example 3, (4S,4aS,5aR,12aS)-9-{[N-(tert-butyl)-N-hydroxyglycyl]amino}-4,7-bis(dimethylamino)-3,10,12,12a-tetrahydroxy-1,11-dioxo-1,4,4a,5,5a,6,11,12a-octahydrotetracene-2-carboxamide]	1 µg/mL (≈ 1.66 µM)	>64	2	4	4	>64	>64	8	8	4	4	1	32	1	0.50	1	16	>64	2 to 4 mg/kg	8	minimum inhibitory concentration (MIC) [19]: 4; ED50 [20]: > 32 mg/kg; minimum inhibitory concentration (MIC) [21]: 8
CN(C)c1cc(NC(=O)CNOC(C)(C)C)c(O)c2c1C[C@H]1C[C@H]3[C@H](N(C)C)C(O)=C(C(N)=O)C(=O)[C@@]3(O)C(O)=C1C2=O [Example 4, (4S,4aS,5aR,12aS)-9-{[N-(tert-butoxy)glycyl]amino}-4,7-bis(dimethylamino)-3,10,12,12a-tetrahydroxy-1,11-dioxo-1,4,4a,5,5a,6,11,12a-octahydrotetracene-2-carboxamide]	4 µg/mL (≈ 6.65 µM)	16	0.50	1	1	8	16	2	16	1	1	0.50	8	0.25	0.12	0.25	>64	>64	0.25 to 1 mg/kg	8	minimum inhibitory concentration (MIC) [19]: 1; ED50 [20]: 1.1 mg/kg; minimum inhibitory concentration (MIC) [21]: 1
CONCC(=O)Nc1cc(N(C)C)c2c(c1O)C(=O)C1=C(O)[C@]3(O)C(=O)C(C(N)=O)=C(O)[C@@H](N(C)C)[C@@H]3C[C@@H]1C2 [Example 5, (4S,4aS,5aR,12aS)-4,7-bis(dimethylamino)-3,10,12,12a-tetrahydroxy-9-[(N-methoxyglycyl)amino]-1,11-dioxo-1,4,4a,5,5a,6,11,12a-octahydrotetracene-2-carboxamide]	1 µg/mL (≈ 1.79 µM)	4	0.25	1	1	4	4	2	2	1	1	0.25	2	0.12	0.25	0.25	4	>64	0.5 to 1 mg/kg	4	minimum inhibitory concentration (MIC) [19]: 1; ED50 [20]: 16 to 32 mg/kg; minimum inhibitory concentration (MIC) [21]: 2
CN(C)c1cc(NC(=O)CN(O)Cc2ccccc2)c(O)c2c1C[C@H]1C[C@H]3[C@H](N(C)C)C(O)=C(C(N)=O)C(=O)[C@@]3(O)C(O)=C1C2=O [Example 6, (4S,4aS,5aR,12aS)-9-[(N-benzyl-N-hydroxyglycyl)amino]-4,7-bis(dimethylamino)-3,10,12,12a-tetrahydroxy-1,11-dioxo-1,4,4a,5,5a,6,11,12a-octahydrotetracene-2-carboxamide]	2 µg/mL (≈ 3.15 µM)	8	0.50	1	4	16	32	2	8	2	2	0.25	16	0.12	0.25	0.25	64	>64	> 4 mg/kg	8	minimum inhibitory concentration (MIC) [19]: 2; ED50 [20]: > 16 mg/kg; minimum inhibitory concentration (MIC) [21]: 2
